Test results reported in ChEMBL document CHEMBL4706520, “Development of disulfide-derived fructose-1,6-bisphosphatase (FBPase) covalent inhibitors for the treatment of type 2 diabetes” (Eur J Med Chem, 2020).

How the values were obtained:
[1] = target: T1, Fructose-1,6-bisphosphatase 1 (Homo sapiens, UniProt P09467); assay: Inhibition of wild-type full-length human liver FBPase expressed in Escherichia coli BL21 (DE3) using FBP as substrate by malachite green dye based assay; assay type: tissue-based
T1 sequence (P09467 whole entry): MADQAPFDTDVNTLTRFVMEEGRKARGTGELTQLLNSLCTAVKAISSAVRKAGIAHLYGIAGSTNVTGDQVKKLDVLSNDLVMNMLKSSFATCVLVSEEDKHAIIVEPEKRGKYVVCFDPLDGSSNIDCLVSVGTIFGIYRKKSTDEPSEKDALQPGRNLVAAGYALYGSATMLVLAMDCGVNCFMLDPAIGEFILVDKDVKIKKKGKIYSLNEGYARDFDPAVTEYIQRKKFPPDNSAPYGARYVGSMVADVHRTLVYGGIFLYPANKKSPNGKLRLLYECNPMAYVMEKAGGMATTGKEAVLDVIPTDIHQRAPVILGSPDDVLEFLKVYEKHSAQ

Mus musculus [2] = assay: Glucose lowering activity in 12 hrs fasting normoglycemic ICR mouse assessed as time for maximum blood glucose reduction at 25 to 50 mg/kg, ip by glucometer; assay type: functional; conditions: dose 25-50 mg/kg
Mus musculus [3] = assay: Glucose lowering activity in 12 hrs fasting normoglycemic ICR mouse assessed as reduction in blood glucose level at 50 mg/kg, ip measured upto 8 hrs by glucometer; assay type: functional; conditions: time hrs <=8
HepG2 = assay: Cytotoxicity against human HepG2 cells assessed as reduction in cell viability measured after 48 hrs by cell counting kit-8 assay; assay type: functional, cell-based; conditions: HepG2, 48 h

SMILES	IC50 [1]	also measured
CCCN(CCC)C(=S)SSC(=S)N(CCC)CCC	> 10 µM	–
CC(C)N(C(=S)SSC(=S)N(C(C)C)C(C)C)C(C)C	> 10 µM	–
O=C(O)C1CCN(C(=S)SSC(=S)N2CCC(C(=O)O)CC2)CC1	> 10 µM	–
S=C(SSC(=S)N1CCC1)N1CCC1	> 10 µM	–
CN(C(=S)SSC(=S)N(C)c1ccccc1)c1ccccc1	> 10 µM	–
CCN(CC)C(=S)SCSC(=S)N(CC)CC	> 10 µM	–
CN1CCN(C(=S)SSC(=S)N2CCN(C)CC2)CC1	> 10 µM	–
S=C(SSC(=S)N1CCc2ccccc2C1)N1CCc2ccccc2C1	> 10 µM	–
CCN(CC)C(=O)CSC(=S)N(CC)CC [(DIETHYLCARBAMOYL)METHYLENE DIETHYLCARBAMODITHIOATE]	> 10 µM	–
CCN(CC)C(=S)CSC(=S)N(CC)CC [(DIETHYLTHIOCARBAMOYL)METHYLENE DIETHYLCARBAMODITHIOATE]	> 10 µM	–
S=C(SSC(=S)N1CCCCC1)N1CCCCC1 [BIS(PIPERIDINYLTHIOCARBONYL)DISULFIDE]	8.78 µM	–
S=C(SSC(=S)N1CCCC1)N1CCCC1 [BIS(PYRROLIDINYLTHIOCARBONYL)DISULFIDE]	2.28 µM	–
CCN(CC)C(=S)SC(=S)N(CC)CC [SULFIRAM]	> 10 µM	–
CN(C)C(=S)SSC(=S)N(C)C [THIRAM]	2.29 µM	–

More lines, main results first:

IC50 [1]	SMILES	also measured
> 10 µM	S=C(SSC(=S)n1c2ccccc2c2ccccc21)n1c2ccccc2c2ccccc21	–
0.6 µM	Clc1ccccc1SSc1nccs1	Time (Mus musculus [2]): 6 h; inhibition in vivo at 50 mg/kg (Mus musculus [3]): 50%; IC50 (HepG2): 64.5 µM
> 10 µM	c1csc(SSC2CCCC2)n1	–
> 10 µM	S=C(SSC(=S)n1ncc2ccccc21)n1ncc2ccccc21	–
5.39 µM	CCSSc1nccs1	–
> 10 µM	Cc1cccn1C(=S)SSC(=S)n1cccc1C	–
1.29 µM	Clc1ccc(SSc2nncs2)cc1	–
1.94 µM	Nc1nnc(SSc2ccc(Cl)cc2)s1	–
> 10 µM	CN(C(=S)SSC(=S)N(C)c1ccc(-c2ccccc2)cc1)c1ccc(-c2ccccc2)cc1	–
7.6 µM	Nc1ccc(SSc2nccs2)cc1	–
> 10 µM	Cn1ccnc1SSc1nccn1C	–
3.32 µM	Clc1nnc(SSc2nnc(Cl)s2)s1	–
> 10 µM	S=C(SSC(=S)N1CCCc2ccccc21)N1CCCc2ccccc21	–
> 10 µM	CN(Cc1ccccc1)C(=S)SSC(=S)N(C)Cc1ccccc1	–
0.31 µM	c1ccc2sc(SSc3nc4ccccc4s3)nc2c1 [BENZOTHIAZYL DISULFIDE]	Time (Mus musculus [2]): 6 h; inhibition in vivo at 50 mg/kg (Mus musculus [3]): 54%; IC50 (HepG2): > 100 µM
